Like-named read-outs stand apart in the source and are kept apart here.
Tests used:
MAO-A = molecular target: T1, MAO-A (Mus musculus, UniProt Q64133); assay: Cerebral MAO-A activity, mitochondria-enriched mouse brain fraction (kynuramine, fluorimetric); assay type: biochemical; settings: for Concentrations with significant inhibition of MAO-A activity: tested 25–200 μM, Dunnett vs control
T1 construct: Mitochondria-enriched brain preparations were obtained in accordance with established methodology outlined in literature; from tissue; host or cells: mouse brain, mitochondria-enriched fraction
T1 sequence (Q64133 1-526): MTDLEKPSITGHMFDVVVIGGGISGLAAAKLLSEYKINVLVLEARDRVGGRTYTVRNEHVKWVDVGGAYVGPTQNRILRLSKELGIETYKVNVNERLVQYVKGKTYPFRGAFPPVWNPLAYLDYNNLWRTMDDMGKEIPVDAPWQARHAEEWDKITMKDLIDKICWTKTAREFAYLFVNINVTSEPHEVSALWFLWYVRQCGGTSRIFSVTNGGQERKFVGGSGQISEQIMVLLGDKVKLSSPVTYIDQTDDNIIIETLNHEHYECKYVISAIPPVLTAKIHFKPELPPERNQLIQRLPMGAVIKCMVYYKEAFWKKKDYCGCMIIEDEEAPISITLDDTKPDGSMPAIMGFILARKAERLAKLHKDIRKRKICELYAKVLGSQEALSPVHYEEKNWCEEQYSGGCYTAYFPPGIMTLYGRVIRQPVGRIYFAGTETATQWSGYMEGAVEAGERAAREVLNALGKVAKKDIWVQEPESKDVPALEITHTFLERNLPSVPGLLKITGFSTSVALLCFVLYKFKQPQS
Description: (§1) Mitochondria-enriched brain preparations were obtained in accordance with established methodology outlined in literature. The homogenate was prepared using the mouse brain tissue and a homogenization buffer (Na2PO4/KH2PO4/sucrose) at a ratio of 1:4 (w/v). The homogenate was centrifuged at 900g at 4 °C for 5 min. The resulting supernatant was separated and subjected to centrifugation at 12,500g for 15 min. The resulting pellet was resuspended in the homogenization buffer and subjected to a further round of centrifugation under identical conditions. Finally, the mitochondrial pellet obtained was reconstituted in an assay buffer solution (Na2PO4/KH2PO4/KCl). Protein concentration was estimated using the Bradford method and standardized as 1 mg/mL for the experiments.
(§2) MAO activity was assessed following the method outlined by Krajl, with some modifications by Matsumoto. Briefly, a 100 μL aliquot of the mitochondria-rich fraction was incubated at 37 °C for 5 min with specific MAO inhibitors: clorgyline (250 nM, a MAO-A inhibitor), or pargyline (250 nM, a MAO-B inhibitor). Then, 10 μL of each compound was introduced at varying concentrations (25–200 μM). Water (10 μL) was used in the control tubes. Afterward, the substrate, 20 μL of kynuramine dihydrobromide, was added to achieve a final concentration of 90 μM for MAO-A and 60 μM for MAO-B. The samples were incubated at 37 °C for 30 min. The reaction was halted by the addition of 300 μL of 10% trichloroacetic acid (TCA). After centrifuging at 16,000g for 15 min, an aliquot of 800 μL of the supernatant was mixed with 1 mL of 1 M sodium hydroxide (NaOH). The samples were measured using a fluorimeter with excitation at 315 nm and emission at 380 nm.

MAO-B = molecular target: T2, MAO-B (Mus musculus, UniProt Q8BW75); assay: Cerebral MAO-B activity, mitochondria-enriched mouse brain fraction (kynuramine, fluorimetric); assay type: biochemical
T2 construct: Mitochondria-enriched brain preparations were obtained in accordance with established methodology outlined in literature; from tissue; host or cells: mouse brain, mitochondria-enriched fraction
T2 sequence (Q8BW75 1-520): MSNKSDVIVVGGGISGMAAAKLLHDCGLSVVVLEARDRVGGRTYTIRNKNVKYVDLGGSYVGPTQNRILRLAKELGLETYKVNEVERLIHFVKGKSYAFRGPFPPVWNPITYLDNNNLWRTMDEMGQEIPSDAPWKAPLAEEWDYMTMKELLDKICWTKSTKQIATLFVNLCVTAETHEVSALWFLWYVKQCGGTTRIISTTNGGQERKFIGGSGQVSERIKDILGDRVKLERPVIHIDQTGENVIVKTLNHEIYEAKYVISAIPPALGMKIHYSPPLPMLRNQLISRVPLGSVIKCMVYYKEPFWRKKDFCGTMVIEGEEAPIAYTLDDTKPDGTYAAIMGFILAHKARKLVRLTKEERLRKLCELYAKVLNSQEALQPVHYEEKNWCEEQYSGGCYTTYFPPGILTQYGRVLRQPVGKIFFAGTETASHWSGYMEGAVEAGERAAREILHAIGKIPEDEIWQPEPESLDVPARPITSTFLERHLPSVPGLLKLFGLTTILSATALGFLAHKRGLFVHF
Description: as §1, §2

protein carbonylation = assay: Protein carbonylation assay, SNP-induced, brain homogenate; assay type: biochemical, mouse; settings: for IC50: mouse brain homogenate, SNP-induced, 25–200 μM; for Concentrations effective in reducing SNP-induced protein carbonylation: tested 25–200 μM
Description: Brains from mice of both sexes were used for in vitro assays, each performed in duplicate across three independent experiments (n = 3), conducted on different days.
The evaluation of protein carbonylation was performed according to a previously established protocol, using freshly prepared brain homogenate diluted at a 1:8 ratio in Tris-HCl buffer. Test compounds (10 μL), ranging in concentrations from 25 to 200 μM, were individually introduced into separate test tubes. Trolox (100 μM) served as the standard antioxidant. The diluted brain homogenate (940 μL) was then added to all tubes, followed by SNP (1 mM) as the inducing oxidative agent (50 μL). The tubes were promptly incubated at 37 °C for 2 h. Following incubation, 2 M HCl was added to blank tubes (200 μL), while 10 mM 2,4-dinitrophenyl-hydrazine (DNPH) solution was added to test tubes (200 μL). The mixture was incubated for 1 h in darkness at room temperature, with intermittent stirring every 15 min to facilitate the color reaction. Subsequently, 500 μL of denaturation buffer, 1.5 mL of ethanol, and 1.5 mL of hexane were added to all tubes, which were then vigorously shaken for 40 s. The tubes were then centrifuged at 900g for 15 min, and the supernatant was carefully decanted. The resulting pellet was washed twice with 1 mL of ethanol/ethyl acetate solution (1:1). After allowing the pellet to dry air for 2 min, it was resuspended in 1 mL of denaturation buffer and subjected to spectrophotometric analysis at 370 nm. The findings were quantified as nmol carbonyl per gram of tissue.

Structure (SMILES)	IC50 (MAO-A; mouse brain mitochondria-rich fraction, 25–200 μM, kynuramine 90 μM, read-out: IC50 for MAO-A) [µM]	Concentrations with significant inhibition of MAO-A activity (MAO-A)	IC50 (MAO-B; mouse brain mitochondria-rich fraction, 25–200 μM, kynuramine 60 μM, read-out: IC50 for MAO-B) [µM]	Concentrations with significant inhibition of MAO-B activity (MAO-B; tested 25–200 μM, Dunnett vs control) [µM]	IC50 (protein carbonylation) [µM]	Concentrations effective in reducing SNP-induced protein carbonylation (protein carbonylation)	IC50 (MAO-A) [µM]	IC50 (MAO-B) [µM]
Cc1ccc(C(=O)C[n+]2ccccc2C[Se]c2ccccc2)cc1 [Compound 3B, 1-(2-oxo-2-(p-tolyl)ethyl)-2-((phenylselanyl)methyl)pyridin-1-ium bromide]	73.9	all concentrations tested	91.1	≥ 50	230	200 µM	–	–
O=C(C[n+]1ccccc1C[Se]c1ccccc1)c1ccccc1.[Br-] [Compound 3A, 1-(2-oxo-2-phenylethyl)-2-((phenylselanyl)methyl)pyridin-1-ium bromide]	–	≥ 50 µM	–	–	130	all concentrations	238	129
